[ ]: non-standard residue; d: D form. The star is where a group is joined. Dnp = O=[N+]([O-])c1ccc(*)c([N+](=O)[O-])c1; Mca = COc1ccc2c(CC(=O)*)cc(=O)oc2c1; Nva = CCC[C@H](N)C(=O)O; Dap = NC[C@H](N)C(=O)O; Mob = COc1ccc(C*)cc1
Assays:
Assay type in all cases: biochemical
[1] = test system: ADAMTS; assay: Colorimetric thiopeptolide conversion assay (Example 2); details: Example 2, ADAMTS-1 and ADAMTS-4 tested
Description: (§1) TNCB Buffer (see Example 1)
(§2) ADAMTS (Invitek Gesellschaft für Biotechnik & Biodesign mbH, Berlin, Germany) 5 μg of ADAMTS-1 were diluted with 2200 μL, and 5 μg of ADAMTS-4 were diluted with 600 μl of TNCB buffer.
(§3) 1) DTNB Solution (5,5′-dithiobis(2-nitrobenzoic Acid):
(§4) A 40 mM stock solution in DMSO was prepared:
(§5) Then 27.5 μL of DTNB stock solution were diluted with 522 μL of water.
(§6) A 100 mM stock solution in DMSO was prepared. For use, 55 μL of thiopeptilide stock solution were diluted with 500 μL of TNCB buffer.
(§7) Immediately before use, 550 μl of DTNB were mixed with 550 μl of thiopeptilide.
(§8) The measurements were carried out in 96-multiwell plates (half area plates, flat bottom, clear, polystyrene, No. 3695) (Corning Costar, Acton, USA).
(§9) 10 μL of enzyme solution and 10 μL of H2O were mixed, and the reaction was started by adding 10 μL of substrate solution.
(§10) Microtiter plate photometer: Molecular Devices Sunnyvale, USA. SpectraMax 190.

[2] = test system: ADAMTS-4; assay: Colorimetric thiopeptolide conversion assay, Ellman's reaction with DTNB (Example 2); set-up: key: +: Increase in the optical signal was observed over 5 minutes; details: absorption at 415 nm for 5 min
Description: as §1, §2, §3, §4, §5, §6, §7, §8, §9, §10

[3] = test system: ADAMTS-1; assay: as above; set-up: key: +: Increase in the optical signal was observed over 5 minutes; details: absorption at 415 nm for 5 min
Description: as §1, §2, §3, §4, §5, §6, §7, §8, §9, §10

[4] = target: T1, MMP-3cd (Homo sapiens, UniProt P08254); assay: as above; set-up: key: +: Increase in the optical signal was observed over 5 minutes; details: absorption at 415 nm for 5 min
T1 construct: The catalytic domains of the human recombinant MMP-3 and MMP-8 protein, MMP-3cd and MMP-8cd; purchased Biomol International L. P. Pennsylvania, USA SE-109
Description: as §1, §3, §4, §5, §6, §7, §8, §9, §10

[5] = target: T2, MMP-8cd (Homo sapiens, UniProt P22894); assay: as above; set-up: key: +: Increase in the optical signal was observed over 5 minutes; details: absorption at 415 nm for 5 min
T2 construct: The catalytic domains of the human recombinant MMP-3 and MMP-8 protein, MMP-3cd and MMP-8cd; purchased Biomol International L. P. Pennsylvania, USA SE-255
Description: as §1, §3, §4, §5, §6, §7, §8, §9, §10

[6] = target: T2, MMP-8cd; assay: Fluorometric substrate conversion assay (Comparative Example 1); set-up: key to Conversion of fluorimetric substrate by MMP-8 cd (increase in the optical signal): +: Increase in the optical signal was observed over 5 minutes; details: for Conversion of fluorimetric substrate by MMP-8 cd (increase in the optical signal): fluorescence measured for 5 minutes, λex/λem per substrate
Description: (§11) The catalytic domains of the human recombinant MMP-3 and MMP-8 protein, MMP-3cd and MMP-8cd, can be purchased from, for example, Biomol International L. P. Pennsylvania, USA; catalog number SE-109 and SE-255 respectively. The truncated forms of ADAM-TS1 and ADAM-TS4 protease can likewise be purchased from, for example, Invitek, Gesellschaft für Biotechnik & Biodesign mbH, Berlin, Germany, catalog number 30400402 and 30400102, respectively.
(§12) 100 mM tris(hydroxymethyl)aminomethane, adjusted to pH 7.5 with HCl-100
(§13) 10 mM substrates (see Table) in DMSO, immediately before use, 2 μL of the substrate stock solution were diluted with 130 μL of H2O.
(§14) MMP-3cd (2.3 μg/mL), MMP-8cd (0.6 μg/mL), ADAMTS-1 (2.3 μg/mL) and ADAMTS-4 (3.3 μg/mL) were diluted with TNCB buffer.
(§15) 10 μL of enzyme solution were mixed with 10 μL of H2O, and the reaction was started by adding 10 μL of substrate solution.
(§16) The fluorescence was measured in a TECAN Spectrafluor Plus fluorescence apparatus; Excitation/Emission (see Table). This entailed measuring the fluorescence for 5 minutes on each occasion.

[7] = target: T1, MMP-3cd; assay: as above; set-up: key to Conversion of fluorimetric substrate by MMP-3 cd (increase in the optical signal): +: Increase in the optical signal was observed over 5 minutes; details: for Conversion of fluorimetric substrate by MMP-3 cd (increase in the optical signal): fluorescence measured for 5 minutes, λex/λem per substrate
Description: as §11, §12, §13, §14, §15, §16

T2 sequence (P22894 100-262 limits assumed): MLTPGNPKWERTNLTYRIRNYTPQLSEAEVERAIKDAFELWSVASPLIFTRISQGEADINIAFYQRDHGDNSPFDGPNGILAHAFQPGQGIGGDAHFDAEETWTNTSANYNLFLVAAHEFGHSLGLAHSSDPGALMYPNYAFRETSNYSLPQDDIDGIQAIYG
T1 sequence (P08254 100-272 limits assumed): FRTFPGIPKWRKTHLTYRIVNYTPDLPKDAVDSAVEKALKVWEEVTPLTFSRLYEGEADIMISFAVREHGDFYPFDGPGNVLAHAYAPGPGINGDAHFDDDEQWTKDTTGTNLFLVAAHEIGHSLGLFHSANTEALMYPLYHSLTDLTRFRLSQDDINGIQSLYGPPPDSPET

Row | Molecule | Conversion of fluorimetric substrate by MMP-8 cd (increase in the optical signal) [6] | Conversion of fluorimetric substrate by MMP-3 cd (increase in the optical signal) [7] | also measured
1 | CCOC(=O)CNC(=O)[C@H](CC(C)C)NC(=O)C(CC(C)C)SC(=O)CNC(=O)[C@H](CC(C)C)NC(=O)[C@@H]1CCCN1C(C)=O (stereo partly drawn) [Compound 1, Ac—P-L-G-[(S)-2-mercapto-4-methylpentanoyl]-L-G-OEt] |  |  | Conversion by ADAMTS (in words) [1]: converted; Conversion of colorimetric substrate in Ellman's reaction by ADAMTS-4 [2]: +; Conversion of colorimetric substrate in Ellman's reaction by ADAMTS-1 [3]: +; Conversion of colorimetric substrate in Ellman's reaction by MMP-3 cd [4]: +; Conversion of colorimetric substrate in Ellman's reaction by MMP-8 cd [5]: +
2 | CCCC(SC(=O)C(C)NC(=O)[C@H](CC(C)C)NC(=O)[C@@H]1CCCN1C(C)=O)C(=O)N[C@@H](Cc1c[nH]c2ccccc12)C(N)=O (stereo partly drawn) [Compound 2, Ac—P-L-A-[(S)-2-mercaptopentanoyl]-W—NH2] |  |  | Conversion by ADAMTS (in words) [1]: not converted; Conversion of colorimetric substrate in Ellman's reaction by MMP-3 cd [4]: +; Conversion of colorimetric substrate in Ellman's reaction by MMP-8 cd [5]: +
3 | (7-methoxycoumarin-4-yl)acetyl-Pro-Leu-Gly-Leu-3-(2′,4′-dinitro-phenyl)-L-2,3-diaminopropionyl-Ala-Arg-NH2 [Mca-P-L-G-L-Dap(Dnp)-A-R—NH2] | + | + | Conversion with the protease MMP-8 (in words) ([6]; see experimental section): possible to convert; Conversion with the protease MMP-3 (in words) ([7]; see experimental section): possible to convert
4 | Dnp-P-L-G-L-W-A-R—NH2 (Dnp-PLGLWAR-NH2; SMILES CC(C)C[C@H](NC(=O)CNC(=O)[C@H](CC(C)C)NC(=O)[C@@H]1CCCN1c1ccc([N+](=O)[O-])cc1[N+](=O)[O-])C(=O)N[C@@H](Cc1c[nH]c2ccccc12)C(=O)N[C@@H](C)C(=O)N[C@@H](CCCNC(=N)N)C(N)=O) [fluorimetric MMP substrate, Bachem M-1855] |  | + | 
5 | Dnp-P-β-cyclohexyl-A-G-C(Me)-H-A-K—(N-Me-Abz)-NH2 | + | + | 
6 | Mca-GKPILFFRLK(Dnp)R-NH2 |  | + | 
7 | Mca-P-β-cyclohexyl-A-G-Nva-H-A-Dpa-NH2 | + | + | 
8 | Mca-PLAC(Mob)WAR[Dap](Dnp)-NH2 | + | + | 
9 | Mca-PLAQAV[Dap](Dnp)RSSSR-NH2 |  | + | 
10 | Mca-PLA[Nva][Dap](Dnp)AR-NH2 | + | + | 
11 | Mca-RPLALWR[Dap](Dnp)-NH2 | + | + | 
12 | Mca-R—P—K—P—V-E-Nval-W—R—K-(Dnp)-NH2 |  | + | 
13 | Mca-R—P—K—P—Y-A-Nva-Met-K(Dnp)-NH2 | + | + | 
14 | NBD-eAhx-R—P—K—P-L-A-Nva-W—K(DMACA)-NH2 | + | + | 

Reference: patent US20090149332A1, “METHODS FOR DETERMINING THE ACTIVITY OF ADAM-TS PROTEASES USING THIOPEPTOLIDES” (SANOFI-AVENTIS DEUTSCHLAND GMBH, priority 2005, published 2009)
